# Results: US7998681B2, “Diagnosis and therapy of antibody-mediated inflammatory auto-immune disorders” (Los Angeles Biomedical Research Institute at Harbor-UCLA …, priority 2000, dated 2011)
# Key:
# Type in all cases: cell-based, human
# IL-16 [1] = experiment: IL-16 ELISA of medium from treated fibroblasts, GD donors; conditions: GD, limit of detection 20 pg/ml
# Source text: (§1) In addition to its therapeutic aspects, the present invention also relates to a diagnostic method for detecting the presence of antibody-activated fibroblasts in the patient. Applicants believe that several auto immune diseases or disorders are associated with antibody-activated fibroblasts. […] Altered levels of these chemoattractants can be detected in various biological samples in mammals, preferably humans. Levels of IL-16 and/or RANTES may be monitored in a patient, using standard techniques, as an indication of the deleterious aspects of the disease condition. Biological samples, including but not limited to serum, vitreous humor, aqueous humor, synovial fluid, and tissue, will be drawn from the patient using standard techniques. Particularly preferred are serum samples. The measurement of the IL-16 and RANTES levels may be monitored using any method possible to detect the levels of these proteins in biological samples. A preferred method of analysis is by ELISA as described in Sciaky, D. et al., J. Immunol. 164(7):3806-14, 2000. An ELISA specific for IL-16 can be used to assess the levels released by fibroblasts as described previously in Lim, K. G. et al., J. Immunol. 156(7): 2566-70, 1996. An ELISA specific for RANTES can be used according to the manufacturer's specification (BioSource Intl., Camarillo, Calif.).
# (§2) The levels of IL-16 and RANTES were then assessed with specific ELISAs. The ELISA assay for IL-16 is performed essentially as discussed in Sciaky D., Brazer, W., Center, D. M., Cruikshank, W. W. and Smith, T. J.: Cultured human fibroblasts express constitutive IL-16 mRNA: Cytokine induction of active IL-16 protein synthesis through a caspase-3-dependent mechanism. J. Immunol. 164(7):3806-14, 2000). An ELISA (BioSource) for RANTES was performed according to the manufacturer's instructions.
# IL-16 [2] = experiment: IL-16 ELISA of medium from treated fibroblasts, normal donors; conditions: limit of detection 20 pg/ml
# Source text: In addition to its therapeutic aspects, the present invention also relates to a diagnostic method for detecting the presence of antibody-activated fibroblasts in the patient. Applicants believe that several auto immune diseases or disorders are associated with antibody-activated fibroblasts. Applicants have shown that increased activation of fibroblasts by auto-antibodies can be monitored by determining the levels of IL-16 and/or RANTES production in a patient. Altered levels of these chemoattractants can be detected in various biological samples in mammals, preferably humans. Levels of IL-16 and/or RANTES may be monitored in a patient, using standard techniques, as an indication of the deleterious aspects of the disease condition. Biological samples, including but not limited to serum, vitreous humor, aqueous humor, synovial fluid, and tissue, will be drawn from the patient using standard techniques. Particularly preferred are serum samples. The measurement of the IL-16 and RANTES levels may be monitored using any method possible to detect the levels of these proteins in biological samples. A preferred method of analysis is by ELISA as described in Sciaky, D. et al., J. Immunol. 164(7):3806-14, 2000. An ELISA specific for IL-16 can be used to assess the levels released by fibroblasts as described previously in Lim, K. G. et al., J. Immunol. 156(7): 2566-70, 1996. An ELISA specific for RANTES can be used according to the manufacturer's specification (BioSource Intl., Camarillo, Calif.).
# as §2, with “instructions. In an analysis of over a dozen strains, TAO specific IgG elicit substantial induction of IL-16 and RANTES and in no case were normal fibroblasts so affected.” for “instructions.”
# RANTES = RANTES ELISA of medium from treated fibroblasts, GD donors; conditions: GD, limit of detection 15 pg/ml
# Source text: as §1, §2
# [3] = system: Thy-1^+ and Thy-1^− fibroblasts; experiment: IL-8 production in Thy-1+ and Thy-1- orbital fibroblast subsets; conditions: IL-1β treated
# Source text: FIGS. 11A-11C show differential production in TAO-derived Thy-1^+ and Thy-1^− subsets of PGE2 (11A) and IL-8 in response to IL-1β stimulation (11B), and IL-16 in response to stimulation with Graves' IgG (11C).
# With regard to cytokine expression, both subsets fail to generate detectable IL-6 under basal culture conditions but synthesize high levels of the cytokine when treated with IL-1β. The magnitude of these responses is similar in the two fibroblast populations. Similarly, both subsets express low basal levels of IL-8 (FIG. 11B). When treated with IL-1β, Thy-1^− fibroblasts synthesize and release extremely high levels of IL-8 and this induction is substantially (5.5-fold) greater than that occurring in the Thy-1^+ subset.
substance,measurement,setting,value
IL-1β: pro-inflammatory cytokine used to activate fibroblasts,IL-16,"IL-16 [1]; strain 1, Orbit",71 ± 9 pg/mL
same,IL-16,"IL-16 [1]; strain 2, Orbit",82 ± 9 pg/mL
same,IL-16,"IL-16 [1]; strain 3, Abdominal skin",82 ± 9 pg/mL
same,IL-16,"IL-16 [1]; strain 4, Orbit",194 ± 29 pg/mL
same,IL-16,"IL-16 [1]; strain 6, Neck skin",116 ± 27 pg/mL
same,IL-16,"IL-16 [1]; strain 7, Pretibial skin",194 ± 29 pg/mL
same,IL-16,"IL-16 [1]; strain 8, Pretibial skin",79 ± 11 pg/mL
same,IL-16,"IL-16 [1]; strain 9, Orbit",218 ± 33 pg/mL
same,IL-16,"IL-16 [1]; strain 10, Orbit",246 ± 32 pg/mL
same,IL-16,"IL-16 [1]; strain 11, Orbit",94 ± 12 pg/mL
same,IL-16,"IL-16 [2]; strain 12, Orbit",56 ± 10 pg/mL
same,IL-16,"IL-16 [2]; strain 14, Orbit",68 ± 9 pg/mL
same,IL-16,"IL-16 [2]; strain 15, Extremity Skin",138 ± 15 pg/mL
same,IL-16,"IL-16 [2]; strain 16, Extremity Skin",98 ± 19 pg/mL
same,RANTES,"RANTES; strain 1, Orbit",84 ± 8 pg/mL
same,RANTES,"RANTES; strain 2, Orbit",116 ± 11 pg/mL
same,RANTES,"RANTES; strain 3, Abdominal skin",116 ± 11 pg/mL
same,RANTES,"RANTES; strain 4, Orbit",128 ± 26 pg/mL
same,RANTES,"RANTES; strain 6, Neck skin",253 ± 42 pg/mL
same,RANTES,"RANTES; strain 7, Pretibial skin",128 ± 26 pg/mL
same,RANTES,"RANTES; strain 9, Orbit",78 ± 21 pg/mL
same,RANTES,"RANTES; strain 10, Orbit",214 ± 30 pg/mL
same,RANTES,"RANTES; strain 11, Orbit",69 ± 6 pg/mL
same,IL-8 induction in Thy-1^− relative to Thy-1^+ subset,[3],5.5 fold
